This is an account of results in patent publication US9284300B2, “Pyridazinone derivatives” (Merck Patent GmbH, priority 2007, dated 2016).

The target in the first assay is T1, Met kinase (Homo sapiens, UniProt P08581). The experiment in a line: Flashplate method (Met kinase). The format is biochemical. Also on record: 6His (N); purchased Upstate 14-526; host or cells: Sf21 insect cells (S. frugiperda), baculovirus. The settings on record: Met kinase inhibition, enzyme assay. As for the experimental part: The test plates used are 96-well Flashplate^R microtitre plates from Perkin Elmer (Cat. No. SMP200).
The full value used is the inhibitor-free kinase reaction. This should be approximately in the range 6000-9000 cpm. The pharmacological zero value used is staurosporin in a final concentration of 0.1 mM. The inhibitory values (IC50) are determined using the RS1_MTS program.
Kinase reaction conditions per well: • 30 μl of assay buffer • 10 μl of substance to be tested in assay buffer with 10% of DMSO • 10 μl of ATP (final concentration 1 μM cold, 0.35 μCi of ^33P-ATP) • 50 μl of Met kinase/substrate mixture in assay buffer; (10 ng of enzyme/well, 50 ng of pAGLT/well)
Target sequence in this assay (P08581 974-1390 limits assumed): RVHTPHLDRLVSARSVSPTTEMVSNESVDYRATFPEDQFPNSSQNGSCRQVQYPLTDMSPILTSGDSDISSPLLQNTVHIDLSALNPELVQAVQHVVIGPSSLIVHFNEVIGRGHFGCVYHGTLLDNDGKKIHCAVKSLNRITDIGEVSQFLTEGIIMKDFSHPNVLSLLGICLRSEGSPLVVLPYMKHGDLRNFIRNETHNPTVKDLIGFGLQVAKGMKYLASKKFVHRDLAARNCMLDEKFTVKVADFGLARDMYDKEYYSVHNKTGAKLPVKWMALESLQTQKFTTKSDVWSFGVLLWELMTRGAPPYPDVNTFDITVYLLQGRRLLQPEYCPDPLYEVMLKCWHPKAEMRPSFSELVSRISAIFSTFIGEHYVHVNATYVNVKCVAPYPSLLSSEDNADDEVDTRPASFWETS
Usually IC50 stands for the concentration needed to halve the response being measured. Lower therefore signals greater potency in that assay. In turn, `Cc1cnc(-c2cccc(Cn3nc(-c4cc(F)c(F)c(F)c4)ccc3=O)c2)nc1` [A1, 2-[3-(5-methylpyrimidin-2-yl)benzyl]-6-(3,4,5-trifluorophenyl)-2H-pyridazin-3-one] yielded an IC50 of 1 to 1000 nM.

With `O=C1OCCCN1c1cccc(Cn2nc(-c3cc(F)cc(F)c3)ccc2=O)c1` [A6, 3-{3-[3-(3,5-difluorophenyl)-6-oxo-6H-pyridazin-1-ylmethyl]phenyl}-1,3-oxazinan-2-one], the IC50 was 1 to 1000 nM.

As to `Cc1ccc(=O)n(-c2cccc(Cn3nc(-c4cc(F)cc(F)c4)ccc3=O)c2)n1` [A8, 1-{3-[3-(3,5-difluorophenyl)-6-oxo-6H-pyridazin-1-yl-methyl]phenyl}-3-methyl-6H-pyridazin-6-one], the IC50 lay in the range of 1 to 1000 nM.

The next assay has as its system TPR-Met/NIH3T3 cells. The experiment in a line: In-vivo tests: tumour volume, TPR-Met/NIH3T3 cells injected subcutaneously in Balb/C mice. The note with it: female Balb/C mice, s.c. TPR-Met/NIH3T3 tumour, 200 mg/kg daily by gastric tube, 9 days. As for the experimental part:
They were acclimatised to our keeping conditions for 7 days. Each mouse was subsequently injected subcutaneously in the pelvic area with 4 million TPR-Met/NIH3T3 cells in 100 μl of PBS (without Ca++ and Mg++).
Regarding `CN1CCN(c2cnc(-c3cccc(Cn4nc(-c5cc(F)cc(F)c5)ccc4=O)c3)nc2)CC1` [A18, 6-(3,5-difluorophenyl)-2-{3-[5-(4-methylpiperazin-1-yl)pyrimidin-2-yl]-benzyl}-2H-pyridazin-3-one], the “antitumoural action (tumour volume)” value is on record as “significant antitumoural action”.

A further assay has as its target T1, Met kinase. Put plainly: Met kinase inhibition, cell assay. Type of assay: cell-based.
Conditions: not given
Target sequence in this assay (P08581 25-1390): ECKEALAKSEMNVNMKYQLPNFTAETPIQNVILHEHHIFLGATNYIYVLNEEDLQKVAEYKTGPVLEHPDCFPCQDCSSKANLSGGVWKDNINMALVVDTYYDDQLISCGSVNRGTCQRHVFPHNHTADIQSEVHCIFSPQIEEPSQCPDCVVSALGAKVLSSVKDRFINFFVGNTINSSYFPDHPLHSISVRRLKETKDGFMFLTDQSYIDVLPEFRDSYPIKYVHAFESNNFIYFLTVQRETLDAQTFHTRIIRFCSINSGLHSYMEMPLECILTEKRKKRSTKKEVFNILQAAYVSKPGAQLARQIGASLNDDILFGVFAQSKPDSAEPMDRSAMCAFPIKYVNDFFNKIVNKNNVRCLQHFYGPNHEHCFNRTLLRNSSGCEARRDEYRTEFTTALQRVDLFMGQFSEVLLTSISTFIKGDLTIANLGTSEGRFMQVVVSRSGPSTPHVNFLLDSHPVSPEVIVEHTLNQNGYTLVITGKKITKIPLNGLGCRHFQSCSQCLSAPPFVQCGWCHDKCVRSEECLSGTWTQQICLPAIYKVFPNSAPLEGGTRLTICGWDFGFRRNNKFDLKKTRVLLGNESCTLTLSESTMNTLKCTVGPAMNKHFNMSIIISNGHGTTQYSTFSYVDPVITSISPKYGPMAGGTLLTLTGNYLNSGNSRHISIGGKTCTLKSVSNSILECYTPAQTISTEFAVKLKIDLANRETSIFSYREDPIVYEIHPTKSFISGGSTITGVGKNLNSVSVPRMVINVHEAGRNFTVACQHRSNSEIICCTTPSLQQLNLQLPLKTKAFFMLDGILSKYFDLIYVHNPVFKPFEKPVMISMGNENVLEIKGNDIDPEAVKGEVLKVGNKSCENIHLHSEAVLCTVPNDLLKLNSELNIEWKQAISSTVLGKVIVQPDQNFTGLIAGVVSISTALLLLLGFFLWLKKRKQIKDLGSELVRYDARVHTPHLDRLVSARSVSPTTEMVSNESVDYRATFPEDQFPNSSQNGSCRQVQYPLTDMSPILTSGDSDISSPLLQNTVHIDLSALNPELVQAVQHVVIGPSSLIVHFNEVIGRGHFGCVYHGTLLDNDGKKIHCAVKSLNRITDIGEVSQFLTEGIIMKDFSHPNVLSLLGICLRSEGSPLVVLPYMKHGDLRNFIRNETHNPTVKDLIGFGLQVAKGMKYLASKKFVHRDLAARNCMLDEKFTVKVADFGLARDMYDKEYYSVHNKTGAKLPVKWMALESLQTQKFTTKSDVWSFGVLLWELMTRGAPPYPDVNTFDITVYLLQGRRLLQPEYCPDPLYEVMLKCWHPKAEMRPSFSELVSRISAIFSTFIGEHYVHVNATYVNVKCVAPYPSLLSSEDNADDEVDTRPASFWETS
On to `Cc1cnc(-c2cccc(Cn3nc(-c4cc(F)c(F)c(F)c4)ccc3=O)c2)nc1` [A1, 2-[3-(5-methylpyrimidin-2-yl)benzyl]-6-(3,4,5-trifluorophenyl)-2H-pyridazin-3-one], for which the IC50 lay within 1 to 1000 nM.

For `O=c1ccc(-c2cc(F)cc(F)c2)nn1Cc1cccc(-c2nccc(N3CCNCC3)n2)c1` [A13, 6-(3,5-difluorophenyl)-2-[3-(4-piperazin-1-ylpyrimidin-2-yl)benzyl]-2H-pyridazin-3-one], the IC50 lay within 1000 to 10000 nM.

With `CN1CCN(Cc2cnc(-c3cccc(Cn4nc(-c5cc(F)cc(F)c5)ccc4=O)c3)nc2)CC1` [A14, 6-(3,5-difluorophenyl)-2-{3-[5-(4-methylpiperazin-1-yl-methyl)pyrimidin-2-yl]benzyl}-2H-pyridazin-3-one], the IC50 is 1 to 1000 nM.

With `Cc1cnc(-c2cccc(Cn3nc(-c4cccc(C#N)c4)ccc3=O)c2)nc1` [A15, 3-{1-[3-(5-methylpyrimidin-2-yl)benzyl]-6-oxo-1,6-dihydropyridazin-3-yl}benzonitrile], the IC50 was in the range of 1 to 1000 nM.

As for `CN(C)C=Nc1cnc(-c2cccc(Cn3nc(-c4cc(F)cc(F)c4)ccc3=O)c2)nc1` [A16, N′-(2-{3-[3-(3,5-difluorophenyl)-6-oxo-6H-pyridazin-1-ylmethyl]phenyl}-pyrimidin-5-yl)-N,N-dimethylformamidine], the IC50 was in the range of 1 to 1000 nM.

In turn, `Nc1cnc(-c2cccc(Cn3nc(-c4cc(F)cc(F)c4)ccc3=O)c2)nc1` [A17, 2-[3-(5-aminopyrimidin-2-yl)benzyl]-6-(3,5-difluorophenyl)-2H-pyridazin-3-one] gave an IC50 of 1 to 1000 nM.

Molecule `CN1CCN(c2cnc(-c3cccc(Cn4nc(-c5cc(F)cc(F)c5)ccc4=O)c3)nc2)CC1` [A18, 6-(3,5-difluorophenyl)-2-{3-[5-(4-methylpiperazin-1-yl)pyrimidin-2-yl]-benzyl}-2H-pyridazin-3-one] registered an IC50 of 1 to 1000 nM.

Molecule `O=c1ccc(-c2cc(F)cc(F)c2)nn1Cc1cccc(-c2ncc(N3CCNCC3)cn2)c1` [A19, 6-(3,5-difluorophenyl)-2-[3-(5-piperazin-1-ylpyrimidin-2-yl)benzyl]-2H-pyridazin-3-one] returned an IC50 of 1 to 1000 nM.

The molecule `CN1CCN(c2cnc(-c3cccc(Cn4nc(-c5cc(F)c(F)c(F)c5)ccc4=O)c3)nc2)CC1` [A20, 2-{3-[5-(4-methylpiperazin-1-yl)pyrimidin-2-yl]benzyl}-6-(3,4,5-trifluorophenyl)-2H-pyridazin-3-one] yielded an IC50 of 1 to 1000 nM.

With `CN1CCC(Oc2cnc(-c3cccc(Cn4nc(-c5cc(F)cc(F)c5)ccc4=O)c3)nc2)CC1` [A23, 6-(3,5-difluorophenyl)-2-{3-[5-(1-methylpiperidin-4-yloxy)pyrimidin-2-yl]benzyl}-2H-pyridazin-3-one], the IC50 was in the range of 1 to 1000 nM.

`O=c1ccc(-c2cc(F)cc(F)c2)nn1Cc1cccc(-c2ncc(Br)cn2)c1` [A25, 2-[3-(5-bromopyrimidin-2-yl)benzyl]-6-(3,5-difluorophenyl)-2H-pyridazin-3-one]: the half-maximal inhibitory concentration (IC50) was in the range of 1 to 1000 nM.

`Cn1cc(-c2cnc(-c3cccc(Cn4nc(-c5cc(F)cc(F)c5)ccc4=O)c3)nc2)cn1` [A26, 6-(3,5-difluorophenyl)-2-{3-[5-(1-methyl-1H-pyrazol-4-yl)pyrimidin-2-yl]benzyl}-2H-pyridazin-3-one] had an IC50 of 1 to 1000 nM.

Molecule `CN(C)CCCCNC(=O)c1cnc(-c2cccc(Cn3nc(-c4cc(F)c(F)c(F)c4)ccc3=O)c2)nc1` [A35] returned an IC50 of 1 to 1000 nM.

In turn, `CN1CCN(CCOc2cnc(-c3cccc(Cn4nc(-c5cc(F)cc(F)c5)ccc4=O)c3)nc2)CC1` [A57] yielded an IC50 of 1 to 1000 nM.

On to `O=c1ccc(-c2cc(F)cc(F)c2)nn1Cc1cccc(-c2ncc(-c3cnn(C4CCNCC4)c3)cn2)c1` [A63], for which the IC50 is 1 to 1000 nM.

In turn, `CN(C)CCOc1cnc(-c2cccc(Cn3nc(-c4cc(F)cc(F)c4)ccc3=O)c2)nc1` [A64, 2-{3-[5-(2-dimethylaminoethoxy)pyrimidin-2-yl]benzyl}-6-(3,5-difluorophenyl)-2H-pyridazin-3-one] showed an IC50 of 1 to 1000 nM.

Regarding `CN1CCC(COc2cnc(-c3cccc(Cn4nc(-c5cc(F)cc(F)c5)ccc4=O)c3)nc2)CC1` [A66], the IC50 was in the range of 1 to 1000 nM.

In the case of `Cc1cnc(-c2cccc(Cn3nc(-c4ccc5nsnc5c4)ccc3=O)c2)nc1` [A79], the IC50 was 1 to 1000 nM.

With `O=c1ccc(-c2cc(F)cc(F)c2)nn1Cc1cccc(-c2ncc(OC3CCNCC3)cn2)c1` [A102, 6-(3,5-difluorophenyl)-2-{3-[5-(piperidin-4-yloxy)pyrimidin-2-yl]benzyl}-2H-pyridazin-3-one], the IC50 lay in the range of 1 to 1000 nM.

Turning to `N#Cc1cccc(-c2ccc(=O)n(Cc3cccc(-c4ncc(-c5cnn(CCN6CCCC6)c5)cn4)c3)n2)c1` [A168, 3-[6-oxo-1-(3-{5-[1-(2-pyrrolidin-1-ylethyl)-1H-pyrazol-4-yl]pyrimidin-2-yl}benzyl)-1,6-dihydropyridazin-3-yl]-benzonitrile], the IC50 lay within 1 to 1000 nM.

In turn, `Cn1cc(-c2ccc(=O)n(Cc3cccc(-c4ncc(-c5cnn(CCN6CCCC6)c5)cn4)c3)n2)cn1` [A169] returned an IC50 of 1 to 1000 nM.

As to `CN(C)CCCOc1cnc(-c2cccc(Cn3nc(-c4cnn(C)c4)ccc3=O)c2)nc1` [A209, 2-{3-[5-(3-dimethylaminopropoxy)pyrimidin-2-yl]-benzyl}-6-(1-methyl-1H-pyrazol-4-yl)-2H-pyridazin-3-one], the IC50 lay in the range of 1 to 1000 nM.

With `CN1CCC(Oc2cnc(-c3cccc(Cn4nc(-c5cnn(C)c5)ccc4=O)c3)nc2)CC1` [A226, 2-{3-[5-(1-methylpiperidin-4-yloxy)pyrimidin-2-yl]-benzyl}-6-(1-methyl-1H-pyrazol-4-yl)-2H-pyridazin-3-one], the IC50 was in the range of 1 to 1000 nM.

For the molecule `CN1CCC(COc2cnc(-c3cccc(Cn4nc(-c5cnn(C)c5)ccc4=O)c3)nc2)CC1` [A237, 2-{3-[5-(1-methylpiperidin-4-ylmethoxy)pyrimidin-2-yl]-benzyl}-6-(1-methyl-1H-pyrazol-4-yl)-2H-pyridazin-3-one], the IC50 is 1 to 1000 nM.

Take `CN1CCN(c2cnc(-c3cccc(Cn4nc(-c5cccc(C#N)c5)ccc4=O)c3)nc2)CC1` [A287, 3-(1-{3-[5-(4-methylpiperazin-1-yl)pyrimidin-2-yl]benzyl}-6-oxo-1,6-dihydropyridazin-3-yl)benzonitrile]: the IC50 was in the range of 1 to 1000 nM.

Consider `N#Cc1cccc(-c2ccc(=O)n(Cc3cccc(-c4ncc(N5CCNCC5)cn4)c3)n2)c1` [A288, 3-{6-oxo-1-[3-(5-piperazin-1-ylpyrimidin-2-yl)benzyl]-1,6-dihydropyridazin-3-yl}benzonitrile], for which the IC50 fell in the range of 1 to 1000 nM.
